Assays:
Enterovirus A71 [1] = experiment: Antiviral activity against Enterovirus A71 TW/2231/98 infected in human RD cells assessed as reduction in cytopathic effect incubated for 3 days; type: functional, organism-based; details: Enterovirus A, TW/2231/98, RD, 72 h
[2] = Selectivity index, ratio of CC50 for human RD cells to EC50 for antiviral activity against enterovirus A71 TW/2231/98 infected in human RD cells; type: toxicity, cell-based; details: read-out: Ratio CC50/EC50
[3] = Cytotoxicity against human RD cells assessed as reduction in cell growth incubated for 3 days by MTT assay; type: toxicity, cell-based; details: time 3 day
Enterovirus A71 [4] = experiment: Antiviral activity against Enterovirus A71 TW/2231/98 infected in human RD cells assessed as inhibition of viral plaque formation at 45 uM incubated for 3 to 5 days by crystal violet staining based plaque reduction assay relative to control; type: functional; details: Enterovirus A, TW/2231/98, RD, time 3-5 day
[5] = Cytotoxicity against human A549 cells infected with Human adenovirus; type: toxicity, cell-based
[6] = Cytotoxicity against human A549 cells infected with Herpes Simplexvirus; type: toxicity, cell-based; details: A549 cells infected with herpes simplex virus
Human adenovirus sp. = experiment: microbe, parasite or virus in culture; details: A549
Herpes Simplexvirus = experiment: microbe, parasite or virus in culture; details: A549
Enterovirus A71 [7] = experiment: Antiviral activity against Enterovirus A71 4798 assessed as reduction in viral replication; type: functional, organism-based; details: Enterovirus A
Enterovirus A71 [8] = experiment: Antiviral activity against Enterovirus A71 2231 assessed as reduction in viral replication; type: functional, organism-based; details: Enterovirus A
Influenza A virus = experiment: Antiviral activity against influenza A virus assessed as reduction in viral replication; type: functional, organism-based
enterovirus D68 [9] = experiment: Antiviral activity against Enterovirus D68 KY 18953 assessed as reduction in viral replication; type: functional, organism-based; details: Enterovirus D
Coxsackievirus = experiment: Antiviral activity against Coxsackievirus assessed as reduction in viral replication; type: functional, organism-based
enterovirus D68 [10] = experiment: Antiviral activity against Enterovirus D68 2795 assessed as reduction in viral replication; type: functional, organism-based; details: Enterovirus D
Human rhinovirus sp. = experiment: Antiviral activity against Human rhinovirus 71803 assessed as reduction in viral replication; type: functional, organism-based
[11] = target: Dual specificity tyrosine-phosphorylation-regulated kinase 1A (Homo sapiens, UniProt Q13627); experiment: Inhibition of DYRK1A (unknown origin) at 25 uM incubated for 1 hr relative to control
[12] = Metabolic stability in mouse liver microsome assessed as intrinsic clearance incubated for 120 mins by HPLC-MS/MS; type: ADME; details: liver microsomes, read-out: CLH
[13] = Metabolic stability in mouse liver microsome assessed as half life incubated for 120 mins by HPLC-MS/MS; type: ADME; details: liver microsomes
[14] = Metabolic stability in human liver microsome assessed as intrinsic clearance incubated for 120 mins by HPLC-MS/MS; type: ADME; details: liver microsomes, read-out: CLH
[15] = Stability in mouse plasma assessed as half life by HPLC-MS/MS; type: ADME, cell-free
[16] = Metabolic stability in human liver microsome assessed as half life incubated for 120 mins by HPLC-MS/MS; type: ADME; details: liver microsomes
[17] = Lipophilicity, logD of compound by UPLC-MS analysis; type: physicochemical; details: octanol/water
[18] = Plasma protein binding in human by rapid equilibrium dialysis based HPLC-MS/MS analysis; type: ADME, cell-free; details: read-out: PPB (converted)
[19] = Stability in human plasma assessed as half life by HPLC-MS/MS; type: ADME, cell-free
[20] = Plasma protein binding in mouse by rapid equilibrium dialysis based HPLC-MS/MS analysis; type: ADME, cell-free; details: read-out: PPB (converted)

| Structure (SMILES) | EC50 (Enterovirus A71 [1]) | selectivity ratio [2] | CC50 at 72 h [3] | other results |
| --- | --- | --- | --- | --- |
| COc1cc(C(=O)Nc2cncc(-c3cc(-c4cccnc4)cs3)c2)ccc1C | > 10 µM |  |  |  |
| COc1ccc(F)c(C(=O)Nc2cncc(-c3cc(-c4ccncc4)cs3)c2)c1 | > 10 µM |  |  |  |
| COc1ccc(F)c(C(=O)Nc2cncc(-c3cn(-c4cccnc4)nn3)c2)c1 | > 10 µM |  |  |  |
| COc1ccc(F)c(C(=O)Nc2cncc(-c3cc(-c4cccnc4F)cs3)c2)c1 | 8.7 µM | > 11.5 | > 100 µM |  |
| COc1cc(C(=O)Nc2cncc(-c3cc(-c4cccnc4)cs3)c2)ccc1F | > 10 µM |  |  |  |
| COc1ccc(C(=O)Nc2cncc(-c3cc(-c4cccnc4)cs3)c2)cc1OC | > 10 µM |  |  |  |
| COc1ccc(F)c(C(=O)Nc2cncc(-c3cc(-c4ccccc4)cs3)c2)c1 | > 10 µM |  |  |  |
| COc1ccc2c(c1)[nH]c1c(C)nccc12 [HARMINE] |  |  |  | inhibition at 45 µM (Enterovirus A71 [4]): 40%; CC50 [5]: > 20 µM; CC50 [6]: > 20 µM; EC50 (Human adenovirus sp.): 5.7 µM; EC50 (Herpes Simplexvirus): 3.3 µM |
| COc1ccc(F)c(C(=O)N(C)c2cncc(-c3cc(-c4cccnc4)cs3)c2)c1 | > 10 µM |  |  |  |
| COc1c(F)ccc(C(=O)Nc2cncc(-c3cc(-c4cccnc4)cs3)c2)c1F | > 10 µM |  |  |  |
| CCOC(=O)c1ccc(OCCC2CCN(c3ccc(C)nn3)CC2)cc1 [PIRODAVIR] | 0.6 µM | > 16.7 | > 10 µM |  |
| COc1ccc(F)c(C(=O)Nc2cncc(-c3ccccc3)c2)c1 | > 10 µM |  |  |  |
| COc1ccc(F)c(C(=O)Nc2cncc(-c3cncs3)c2)c1 | > 10 µM |  |  |  |
| CC(C)(C)Oc1ccc(C(=O)Nc2cncc(-c3cc(-c4cccnc4)cs3)c2)cc1 | > 10 µM |  |  |  |
| COc1ccc(F)c(CNc2cncc(-c3cccs3)c2)c1 | > 10 µM |  |  |  |
| COc1ccc(Cl)c(C(=O)Nc2cncc(-c3cc(-c4cccnc4)cs3)c2)c1 | > 10 µM |  |  |  |
| COc1ccc(F)c(C(=O)Nc2cncc(-c3cccnc3)c2)c1 | > 10 µM |  |  |  |
| COc1ccc(F)c(C(=O)Nc2cncc(-c3ncns3)c2)c1 | > 10 µM |  |  |  |
| COc1ccc(C(=O)Nc2cncc(-c3cc(-c4cccnc4)cs3)c2)c(F)c1 | > 10 µM |  |  |  |
| O=C(Nc1cncc(-c2cc(-c3cccnc3)cs2)c1)c1ccc(OC(F)(F)F)cc1 | > 10 µM |  |  |  |
| COc1ccc(F)c(C(=O)Nc2cncc(-c3cc4ccccc4s3)c2)c1 | 8.7 µM | 5.4 | 47.3 µM |  |
| COc1cccc(C(=O)Nc2cncc(-c3cc(-c4cccnc4)cs3)c2)c1F | 7.2 µM | 3 | 21.3 µM |  |

| Structure (SMILES) | EC50 (Enterovirus A71 [1]) | selectivity ratio [2] | CC50 at 72 h [3] | other results |
| --- | --- | --- | --- | --- |
| COc1ccc(F)c(C(=O)Nc2ccnc(-c3cccs3)c2)c1 | > 10 µM |  |  |  |
| COc1cc(OC)cc(C(=O)Nc2cncc(-c3cc(-c4cccnc4)cs3)c2)c1 | > 10 µM |  |  |  |
| COc1ccc(F)c(S(=O)(=O)Nc2cncc(-c3cccs3)c2)c1 | > 10 µM |  |  |  |
| O=C(Nc1cncc(-c2cccs2)c1)c1c(F)cc(F)cc1F | 5.4 µM | 8.4 | 45.3 µM | EC50 (Enterovirus A71 [7]): 7.3 µM; EC50 (Enterovirus A71 [8]): 5.4 µM; EC50 (Influenza A virus): > 10 µM; EC50 (enterovirus D68 [9]): 5.4 µM; EC50 (Coxsackievirus): 9.9 µM; EC50 (enterovirus D68 [10]): 5 µM; EC50 (Human rhinovirus sp.): 7.5 µM |
| COc1cc(C(=O)Nc2cncc(-c3cc(Br)cs3)c2)ccc1C | > 10 µM |  |  |  |
| COc1ccc(F)c(C(=O)Nc2cncc(-c3cc(-c4cnccc4C)cs3)c2)c1 | 9.1 µM | 2 | 18.1 µM |  |
| COc1cc(C(=O)Nc2cncc(-c3cccs3)c2)ccc1C | > 10 µM |  |  |  |
| COc1ccc(Cl)c(C(=O)Nc2cncc(-c3cc(-c4cccnc4)cs3)c2)c1F | 5.7 µM | > 17.5 | > 100 µM | inhibition [11]: 95% |
| COc1ccc(F)c(C(=O)Nc2cncc(-c3cc(-c4cccnc4)cs3)c2)c1Cl | 5.2 µM | > 19.2 | > 100 µM | EC50 (Enterovirus A71 [7]): 4 µM; EC50 (Enterovirus A71 [8]): 5.2 µM; microsomal CLint [12]: 137 µL/min/mg; half-life [13]: 10 min; microsomal CLint [14]: 56 µL/min/mg; half-life [15]: > 240 min; EC50 (enterovirus D68 [9]): 3.7 µM; EC50 (Coxsackievirus): > 10 µM; half-life [16]: 25 min; logD [17]: 3.22; EC50 (enterovirus D68 [10]): 5.1 µM; EC50 (Human rhinovirus sp.): 6.9 µM; fraction unbound [18]: 0.0029; half-life [19]: > 240 min; inhibition [11]: 93% |
| COc1ccc(F)c(C(=O)Nc2cncc(-c3cccs3)n2)c1 | > 10 µM |  |  |  |
| COc1ccc(F)c(C(=O)Nc2cncc(-c3cc(-c4cccnc4C)cs3)c2)c1 | 9.1 µM | 1.7 | 15.6 µM |  |
| COc1ccc(F)c(C(=O)Nc2cncc(-c3cc(-c4cccnc4)cs3)c2)c1F | 2.6 µM | 7.7 | 20 µM | inhibition [11]: 81% |
| COc1cccc(C(=O)Nc2cncc(-c3cccs3)c2)c1F | 4.7 µM | 11.2 | 52.8 µM |  |
| COc1ccc(C(=O)Nc2cncc(-c3cc(-c4cccnc4)cs3)c2)cc1F | > 10 µM |  |  |  |
| COc1ccc(F)c(C(=O)Nc2cncc(-c3cc(-c4cn[nH]c4)cs3)c2)c1 | 5.4 µM | 3.6 | 19.6 µM |  |
| COc1ccc(F)c(C(=O)Nc2cccc(-c3cccs3)n2)c1 | > 10 µM |  |  |  |
| O=C(Nc1cncc(-c2cc(-c3cccnc3)cs2)c1)c1ccc(O)cc1 | > 10 µM |  | > 10 µM |  |
| COc1ccc(F)c(C(=O)Nc2cc(-c3cccs3)ccn2)c1 | 2.4 µM | 14 | 33.5 µM | inhibition [11]: 4% |
| COc1ccc(F)c(C(=O)Nc2cncc(-c3nccs3)c2)c1 | > 10 µM |  |  |  |
| COc1ccc(F)c(C(=O)Nc2cncc(-c3cccs3)c2)c1 | 4.3 µM | 17.6 | 75.7 µM | EC50 (Enterovirus A71 [7]): 5.5 µM; EC50 (Enterovirus A71 [8]): 4.3 µM; microsomal CLint [12]: 127 µL/min/mg; EC50 (Influenza A virus): > 10 µM; half-life [13]: 11 min; microsomal CLint [14]: 44 µL/min/mg; half-life [15]: > 240 min; EC50 (enterovirus D68 [9]): 3.5 µM; EC50 (Coxsackievirus): 3.9 µM; half-life [16]: 31.5 min; logD [17]: 3.52; EC50 (enterovirus D68 [10]): 3.6 µM; EC50 (Human rhinovirus sp.): 4.8 µM; fraction unbound [20]: 0.038; fraction unbound [18]: 0.0165; half-life [19]: > 240 min; inhibition [11]: 0% |
| COc1cccc(C(=O)Nc2cncc(-c3cc(Br)cs3)c2)c1F | 8.9 µM |  |  |  |

From ChEMBL document CHEMBL6114985, “From Dyrk1A inhibitors to a novel class of antiviral agents: Targeting Enterovirus EV-A71 with 2-aryl-substituted thiophene scaffolds” (Eur J Med Chem, 2025)
